# According to PubChem BioAssay (NCI):
# Several values for one entry are separate records, joined by “and”; a condition that tells them apart may be missing. Equal entries are not always repeated.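 All cell lines were grown in 96-well plates and treated with compound for 48 hours. GI50 = concentration required for 50% inhibition of growth. TGI marks complete inhibition of growth.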
# Assays:
# Assay in all cases: NCI tumour cell line growth inhibition, 48 h
# NCI-H23 lung = test system: NCI-H23 lung
# TK-10 renal = test system: TK-10 renal
# CCRF-CEM leukemia = test system: CCRF-CEM leukemia
# HT29 colon = test system: HT29 colon
# UACC-257 melanoma = test system: UACC-257 melanoma
# HCC-2998 colon = test system: HCC-2998 colon
# NCI-H226 lung = test system: NCI-H226 lung
# OVCAR-5 ovarian = test system: OVCAR-5 ovarian
# SR leukemia = test system: SR leukemia
# HCT-15 colon = test system: HCT-15 colon
Structure (SMILES),GI50 (NCI-H23 lung),TGI (NCI-H23 lung),GI50 (TK-10 renal),TGI (TK-10 renal),GI50 (CCRF-CEM leukemia),TGI (CCRF-CEM leukemia),GI50 (HT29 colon),TGI (HT29 colon),GI50 (UACC-257 melanoma),TGI (UACC-257 melanoma),GI50 (HCC-2998 colon),TGI (HCC-2998 colon),GI50 (NCI-H226 lung),TGI (NCI-H226 lung),GI50 (OVCAR-5 ovarian),TGI (OVCAR-5 ovarian),GI50 (SR leukemia),TGI (SR leukemia),GI50 (HCT-15 colon),TGI (HCT-15 colon)
COc1ccc(C(=O)COC(=O)[C@H](C[Se][Se]C[C@H](NC(=O)c2ccc(Br)cc2F)C(=O)OCC(=O)c2ccc(OC)cc2)NC(=O)c2ccc(Br)cc2F)cc1,0.412 µM,1.81 µM,1.23 µM,3.4 µM,2.5 µM,11.6 µM,0.879 µM,7.48 µM,2.25 µM,5.31 µM,0.617 µM,1.85 µM,0.581 µM,2.07 µM,0.816 µM,2.54 µM,0.478 µM,4.82 µM,1.03 µM,2.99 µM
CC(=O)Nc1cc(N(CCOS(C)(=O)=O)CCOS(C)(=O)=O)ccc1N=O,–,> 100 µM,–,> 100 µM,–,> 100 µM,–,> 100 µM,–,> 100 µM,–,> 100 µM,–,> 100 µM,–,> 100 µM,–,> 100 µM,–,> 100 µM
COc1cc(OC)c(/C=C\c2ccnc3ccccc23)c(OC)c1,–,22.1 µM,–,17.8 µM,–,5.75 µM,–,11.8 µM,–,17.8 µM,–,23.9 µM,–,16.8 µM,–,19.3 µM,–,12.6 µM,–,18.5 µM
COc1ccc2c(CN3CCC(C(=O)O)CC3)cc3cc4c(cc3c2c1)OCO4,2.53 µM,8.9 µM,3.23 µM,25 µM,1 µM,6.5 µM,2.33 µM,13.8 µM,1.85 µM,3.54 µM,2.72 µM,11 µM,2.03 µM,4.64 µM,2.55 µM,6.87 µM,0.886 µM,5.78 µM,2.76 µM,16.7 µM
O=C(c1ccccc1)c1ccc(Oc2ccc([N+](=O)[O-])cc2[N+](=O)[O-])cc1,4.33 µM,54.9 µM,8.33 µM,> 100 µM,2.89 µM,> 100 µM,4.08 µM,20.8 µM,7.05 µM,29.2 µM,11.4 µM,25.3 µM,2.52 µM,8.57 µM,3.43 µM,24.1 µM,2.6 µM,7.79 µM,3.48 µM,> 100 µM
C=C(C)[C@@H]1CC[C@]2(C(=O)O)CC[C@]3(C)[C@H](CC[C@@H]4[C@@]5(C)C[C@@H](CC#Cc6ccc(C(F)(F)F)cc6)[C@H](O)C(C)(C)[C@@H]5CC[C@]43C)[C@@H]12,–,–,6.11 µM,> 100 µM,2.98 µM,> 100 µM,3.01 µM,> 100 µM,–,–,8.48 µM,> 100 µM,2.91 µM,> 100 µM,–,–,3.23 µM,> 100 µM,3.95 µM,> 100 µM
Nc1nc(OCc2cc(Br)cs2)c2[nH]cnc2n1,21.8 µM,> 100 µM,10.2 µM,62.9 µM,37.5 µM,> 100 µM,28.9 µM,> 100 µM,–,–,36.2 µM,> 100 µM,24.6 µM,> 100 µM,29.8 µM,> 100 µM,29.5 µM,> 100 µM,18.4 µM,> 100 µM
CCCCCCCCOCC(O)COC(=O)CCCCCCC (centres undefined),–,> 100 µM,–,> 100 µM,–,35.7 µM,–,> 100 µM,–,> 100 µM,–,> 100 µM,–,> 100 µM,–,> 100 µM,–,> 100 µM,–,> 100 µM
O=C1C(=O)c2c(nc3ccc(Br)cn23)-c2ccccc21,0.372 µM,2.51 µM,2.28 µM,3.78 µM,1.25 µM,5.18 µM,2.44 µM,6.12 µM,0.747 µM,2.09 µM,1.93 µM,3.51 µM,1.61 µM,3.41 µM,1.78 µM,3.25 µM,0.33 µM,1.52 µM,0.759 µM,2.66 µM
CCOC(=O)CSC(=O)NCCCl,–,> 100 µM,–,> 100 µM,7.22 µM,> 100 µM,–,> 100 µM,–,> 100 µM,–,> 100 µM,–,> 100 µM,–,> 100 µM,> 100 µM,> 100 µM,–,> 100 µM
NS(=O)(=O)c1ccc(NC2=CC(=O)C(=O)c3ccccc32)cc1,–,> 100 µM,–,> 100 µM,–,> 100 µM,–,> 100 µM,–,> 100 µM,–,> 100 µM,–,> 100 µM,–,> 100 µM,–,> 100 µM,–,> 100 µM
O=C1c2nsnc2C(=O)c2c(F)c(F)c(F)c(F)c21,–,–,0.71 µM,1.92 µM,0.117 µM,0.542 µM,0.266 µM,0.715 µM,1.61 µM,3 µM,1.56 µM,3.14 µM,1.93 µM,4.58 µM,1.93 µM,3.47 µM,0.0528 µM,–,0.495 µM,2 µM
O=[N+]([O-])c1ccc(Sc2ncnc3nc[nH]c23)c2nonc12,10.3 µM,23.6 µM,2.34 µM,23.7 µM,1.78 µM,5.14 µM,3.88 µM,20.6 µM,4.52 µM,18.7 µM,4.6 µM,27.6 µM,11.7 µM,30.5 µM,10.3 µM,22.6 µM,0.723 µM,13 µM,10.5 µM,36.1 µM
CC1=CC(=C(c2ccc(N)cc2)c2ccc(N)cc2)C=CC1=N,0.828 µM,4.97 µM and 16.2 µM and 16.4 µM,2.99 µM and 4.98 µM,15.6 µM and 50.2 µM and 19.5 µM,0.626 µM,8.16 µM and 31.3 µM,0.558 µM and 3.08 µM,10.7 µM and 29.9 µM and 11.3 µM,2.4 µM and 3.1 µM,14.4 µM and 19 µM and 10.7 µM,–,2.21 µM and 16 µM and 18.9 µM,2.16 µM and 7.35 µM,16.5 µM and 19.6 µM and 46.6 µM,3.42 µM,14.4 µM and > 71.9 µM and > 100 µM,–,> 58.8 µM,4.61 µM and 14.5 µM,45.1 µM and > 74.7 µM and > 100 µM
CCN(CC)CCOc1ccccc1/C=C/c1noc2ccccc12,–,26.9 µM,–,28.7 µM,–,81.6 µM,–,16 µM,–,15.3 µM,–,18 µM,–,30.5 µM,–,25.1 µM,–,68 µM,–,22.4 µM
